PMC6977461 (Chemical Science, 2019)
*1 amine or outer side, *2 acyl side, *3 side chain or, on linkers, in order; H or OH if unused. The star is where a group is joined. X1 = C[C@@H](CN*)NC(=O)[C@@H](N)Cc1c[nH]cn1; CO = O=C([*:1])[*:2]

Key:
[1] = mouse plasma degradation assay (Methods MP1-MP3); type: in vitro ADME; conditions: mouse plasma diluted 1/1 with PBS; mouse plasma/PBS pH 7.4 (1/1), 5 µM, 37 °C, acetonitrile quench, LC-MS extracted ion chromatogram; MP1 for 2-8, MP2 for 9-11, MP3 for 12-14; mean, n = 3; read-out: Mouse plasma t1/2 (converted)
Method: The oligomer was then diluted 1/50 with a solution of plasma/PBS pH 7.4 (1/1) to afford a final concentration of 5μM and incubated at 37°C. […] (t = 0 min was determined using the reaction without plasma). The samples were frozen at -80°C before analysis. […] The supernatant was analyzed by LC-MS. The time course of oligomer degradation was determined by integrating the area of the peak in the extracted ion chromatogram. […] The oligomer was then diluted 1/50 with a solution of plasma/PBS pH 7.4 (1/1) to afford a final concentration of 5μM and incubated at 37°C. […] The oligomer was then diluted 1/50 with a solution of plasma/PBS pH 7.4 (1/1) to afford a final concentration of 5μM and incubated at 37°C. […] Animals. […] A standard chow diet (RM1 (E) 801492, SDS) and tap water were provided ad libitum. All animal protocols done by Physiogenex S.A.S were reviewed and approved by the local (Comité […] national ([…]

C57BL/6J mice = test: IPGTT in healthy mice 3, 6 or 9 h after i.v. dosing; type: in vivo; conditions: 1 µg per mouse (10 nmol kg-1) i.v., glucose 2 g kg-1 i.p., fasted 9 h, n = 6, versus vehicle
Description: Supérieur et de la Recherche) ethics committees (protocol number 05049-06). For the dose-response study, animal procedures were approved by British Home Office under the UK Animal (Scientific Procedures) Act 1986 (Project Licence 70/7596). Lean male C57Bl/6J mice (6-8 weeks of age, body […]
schedule, lights on at 07:00). Ad libitum access to water and normal chow (RM1, Special Diet Services) was provided unless otherwise stated. Mice were housed in groups of five. For the pharmacokinetics studies performed by TechMedILL service (PCBIS platform, CNRS UMS3286), mice were housed in polycarbonate cages (PCT2L12SHT, Allentown) enriched with play tunnels throughout the […]
environment (22 ± 1 °C) with a relative humidity (50 ± 10 %) and a normal 12 hours light cycle (at 8:00 pm lights off). A standard chow diet (A04, SAFE, France) and tap water were provided ad libitum. […]
After the acclimation period of 5 days, 20-25 g male C57Bl/6J mice 8 weeks old (Charles River laboratories) were randomized into groups (6 mice per group) according to their body weight. The mice were acutely treated with vehicle or 1 µg per mouse (10 nmol kg-1) of oligomers via i.v. injections (formulation: 4 µg mL-1 in PBS 1×) IPGTTs (glucose 2 g kg-1 i.p.) were performed after 3 or 6 hours of […]
(§1) Blood glucose was measured before the administration of […]
as §1

INS-1 832/3 cells = test: insulin secretion in vitro in INS-1 832/3 cells; type: cell-based; conditions: 16 h stimulation at 11 mM glucose, n = 5, versus non-ureido parents
GLP-1R = GLP-1R (Homo sapiens, UniProt P43220); test: cAMP production functional assay in HEK293 cells transfected with GLP-1R (Method C1); type: cell-based; set-up: host or cells: HEK-293T
GLP-1R, sequence (P43220 24-463): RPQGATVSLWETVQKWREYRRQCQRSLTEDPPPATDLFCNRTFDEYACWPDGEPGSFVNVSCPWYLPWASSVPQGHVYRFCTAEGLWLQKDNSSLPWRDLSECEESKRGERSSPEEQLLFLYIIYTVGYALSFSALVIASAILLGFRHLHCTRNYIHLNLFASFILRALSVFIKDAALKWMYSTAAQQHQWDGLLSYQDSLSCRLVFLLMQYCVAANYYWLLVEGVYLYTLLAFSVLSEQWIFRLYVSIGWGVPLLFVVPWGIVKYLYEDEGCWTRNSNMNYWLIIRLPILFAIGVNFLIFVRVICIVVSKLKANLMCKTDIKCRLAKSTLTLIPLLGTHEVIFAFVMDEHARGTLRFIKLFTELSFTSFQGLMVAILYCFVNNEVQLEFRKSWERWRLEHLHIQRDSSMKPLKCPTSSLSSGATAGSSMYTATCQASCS
Method:  HEK-293T cells (Multispan inc., lot#.DC1267-062017) were suspended in cell culture media
(DMEM 1X + GlutaMAX (Gibco 31966-021)) complemented with FBS 10% (Sigma Aldrich
 βTC6 cells were suspended in HBSS buffer (Invitrogen) complemented with 20 mM HEPES (pH
In vitro pharmacology on HEK-293T cells (EC50: Method C1)
cells (Multispan inc., lot#.DC1267-062017) was determined by measuring their effects on cAMP
production using the HTRF detection method (performed by UREkA SARL). The cells were distributed
in 384-well microplates at a density of 1.0x10^4 cells/well. Stock solutions of the test compounds or the
reference agonist were prepared at a concentration of 1 mM in DMSO. Then, compounds to be tested
were diluted in cell culture media and transferred to the plate containing the cells to reach final assay

**Q.** Which results are given for “{X1-CO}-EGTFTSDLSKQLEEEAVRLFIEWLKNGGPSSGAPPSKKKKKK-NH2 [compound 14]”?
**A.** half-life at 5 µM [1]: 6.6 h; blood glucose control, IPGTT 9 h after dosing (C57BL/6J mice): strong ability to control blood glucose levels; insulin release in vitro (INS-1 832/3 cells): significantly increased insulin release; EC50 (GLP-1R; HEK-293T cells exogenously expressing human GLP-1R, cAMP by HTRF, 10 min at 37 °C, Method C1, mean, n = 3 (2: n = 6), read-out: EC50 (GLP-1R potency)): 1.1 pM; Potency (%), percentage of potency compared to GLP-1-NH2 (GLP-1R; from EC50 in HEK293 GLP-1R cAMP assay): 287%
